Measurements published in patent US9440988B2, “Regulators of the hedgehog pathway, compositions and uses related thereto” (John Hopkins University School of Medicine, priority 1008, dated 2016).

Legend:
[1] = test system: P2A6 fibrosarcoma cells derived from Ptc−/− embryonic fibroblasts; assay: Subcutaneous P2A6 fibrosarcoma tumors in female nude mice; type: in vivo, mouse; conditions: for differentiation status of tumors: compared with the tomatidine-treated control, FIG. 7; for Ki-67 proliferation rate: tumors after four days of treatment, blinded pathologist
Description: Female nude mice were injected subcutaneously with 5 million P2A6 fibrosarcoma cells derived from Ptc−/− embryonic fibroblasts. Three weeks after injection, each mouse had developed a discrete subcutaneous tumor. Each tumor was measured and treatments were initiated on the same day. […] The mice were killed, and tumors were measured and dissected out for histopathologic analysis. Tumor volumes were calculated as the product of length x width. The samples were paraformaldehyde-fixed and paraffin-embedded, and slides were cut for hematoxylin and eosin staining and for immunohistochemistry with polyclonal antibodies against the proliferation marker Ki-67 (Novacastra NCL-Ki67p; assay performed according to manufacturer's directions).

NIH-3T3 cells = conditions: data not shown
[2] = test system: Shh pathway activity in Ptc1−/− cells
From the text: Since β-galactosidase is expressed from the Ptc1 locus, its expression reflects the activity of the Shh pathway. A representative experiment is shown. […] Cultures of NIH-3T3 cells were transfected (in triplicate) with Gli-luciferase reporter, TK-Renilla luciferase control vector and Smo or SmoA1 expression vectors. Smo DNA was used at 50% w/w, and SmoA1 at 50%, 5%, and 0.5% w/w. […] Error bars indicate one standard deviation. The leftmost four bars, shown for comparison, are as in FIG. 2C. […] NIH-3T3 cells were transfected with Gli-luc reporter, TK-Renilla, Ptc1CTD and SmoA1 expression vectors (Ptc to Smo DNA ratio=9). […] A representative experiment is shown. […] NIH-3T3 cells were cotransfected with Gli-luc reporter, β-galactosidase transfection control, and a control vector or an expression vector encoding the indicated Smo-Renilla luciferase fusion protein. In the representative experiment shown, Shh pathway activity and Smo protein levels were measured as firefly and Renilla luciferase activities relative to β-galactosidase, respectively.
(§1) Relative reporter activity is normalized to maximum. […] Error bars in A and B indicate one standard deviation.
Mice lacking function of Ptc1 display widespread activation of targets of Shh signaling, including of the Ptc1 gene itself (L. V. Goodrich, L. Milenkovic, K. M. Higgins, M. P. Scott, Science 277, 1109 (1997)). As β-galactosidase is expressed under the control of the Ptc1 promoter in these cells, β-galactosidase expression can be used to assay the state of Shh pathway activity (FIG. 3A).

p2PTC−/− cells = conditions: even at the highest doses used, 2 d
From the text: as §1

Hedgehog signaling = Hedgehog signaling assay in Drosophila c1-8 cells; type: cell-based; conditions: not shown
From the text: Cellular responses to the Hh signal are controlled by two multi-pass transmembrane proteins, Smo and Ptc1, predicted to have seven and twelve transmembrane spans, respectively. Smo is related to the Frizzled family of Wnt receptors and more distantly to the secretin family of G protein-coupled receptors (M. R. Barnes, D. M. Duckworth, L. J. Beeley, Trends Pharmacol Sci 19, 399 (1998)).

Sonic hedgehog signaling = assay: Clonal NIH-3T3 line with stably integrated Shh-responsive luciferase reporter (Shh-LIGHT/Shh-LIGHT2), inhibition of Sonic hedgehog induction; type: cell-based, mouse
From the text: FIG. 2 relates to a sensitive assay for Shh signaling in NIH-3T3 cells. (A) Purification of cholesterol- and palmitate-modified mouse Sonic hedgehog signaling domain ShhNp. Detergent-insoluble proteolipid complexes were isolated from 293 cells expressing full-length Shh (M. K. Cooper, J. A. Porter, K. E. Young, P. A. Beachy, Science 280, 1603 (1998)), and ShhNp was purified to apparent homogeneity by immunoaffinity chromatography. […] We therefore used the detergent insolubility of cholesterol-modified ShhN and affinity chromatography to purify the processed ShhN protein (ShhNp) from a human 293 cell line engineered to express the full length mouse Shh construct. Detergent-insoluble complexes (DIGs) were isolated as described by Brown and Rose (1992), with the following modifications. Cells from a 150 mm dish were lysed and collected in 2 mL of lysis solution (10 mM NaHPO4, pH 6.5, 150 mM NaCl, 0.5 mM PMSF, 1% Triton X-100, 2 μg/ml Pepstatin A, 10 μg/ml leupeptin, 5 μg/ml aprotinin, 2 μg/ml E64) at 4° C. […] Low-density, flocculent material was collected (from original position of 18.125% step), diluted 5-fold in 10 mM NaHPO4, pH 6.5, 150 mM NaCl and harvested by centrifugation at 20,000×g for 15 min (all at 4° C.). […] Mass standards migrated as indicated. […] NIH-3T3 cells cotransfected with Gli-luc reporter and TK promoter-driven Renilla luciferase control were treated with the indicated concentrations of ShhNp for 2 days. Confluent cultures of NIH-3T3 cells were plated at 1:6 dilution to 24 or 96-well plates. On the following day, the cells were transfected with renilla luciferase (pRL-TK or pRL-SV40; Clontech) or β-galactosidase transfection control (10% w/w DNA), Gli-Luc reporter (40%) and the constructs indicated (50%) using Fugene 6 (Roche) transfection reagent (250 ng (24 well plate) or 100 ng (96 well plate) DNA/well, 3:1 ratio (v/w) of reagent to DNA). […] Firefly and Renilla luciferase and β-galactosidase activities were assayed from the cell lysates by luminometry using dual luciferase (Promega) and Galacto-Light (Tropix) kits, respectively. Luciferase activities are normalized relative to control; a representative experiment is shown. […] Error bars indicate one standard deviation. […] Cultures of Shh-LIGHT (open boxes) or SmoA1-LIGHT (filled diamonds) cells were plated to 96-well plates in a series of twofold dilutions. The NIH-3T3 cell clone Shh-LIGHT and Shh-LIGHT2 stably incorporating the Gli-luc reporter and TK-renilla vectors were established by cotransfection with a vector encoding G418 resistance (pSV-Neo), followed by selection with G418 and cell cloning. Subsequently, a clonal subline of Shh-LIGHT expressing activated Smo (SmoA1-LIGHT) was established using an expression vector that allows hygromycin selection (pcDNA3.1+ hygro; Invitrogen). […] The Shh-LIGHT cells were treated with 4 nM ShhNp, and Gli-luciferase reporter activity was assayed after 24 h. Fold induction of the reporter (% of maximum is relative to equally dense Shh-LIGHT control culture) and cell densities (% of maximum Renilla luciferase activity) were measured at the end of the experiment. Error bars indicate one standard deviation (quadruplicate wells).
as §1

activated Smo (SmoA1) = assay: Gli-luciferase reporter activity in cells expressing activated Smo (SmoA1-LIGHT); type: cell-based, mouse
From the text: FIG. 2 relates to a sensitive assay for Shh signaling in NIH-3T3 cells. (A) Purification of cholesterol- and palmitate-modified mouse Sonic hedgehog signaling domain ShhNp. Detergent-insoluble proteolipid complexes were isolated from 293 cells expressing full-length Shh (M. K. Cooper, J. A. Porter, K. E. Young, P. A. Beachy, Science 280, 1603 (1998)), and ShhNp was purified to apparent homogeneity by immunoaffinity chromatography. […] We therefore used the detergent insolubility of cholesterol-modified ShhN and affinity chromatography to purify the processed ShhN protein (ShhNp) from a human 293 cell line engineered to express the full length mouse Shh construct. Detergent-insoluble complexes (DIGs) were isolated as described by Brown and Rose (1992), with the following modifications. Cells from a 150 mm dish were lysed and collected in 2 mL of lysis solution (10 mM NaHPO4, pH 6.5, 150 mM NaCl, 0.5 mM PMSF, 1% Triton X-100, 2 μg/ml Pepstatin A, 10 μg/ml leupeptin, 5 μg/ml aprotinin, 2 μg/ml E64) at 4° C. […] Fold induction of the reporter (% of maximum is relative to equally dense Shh-LIGHT control culture) and cell densities (% of maximum Renilla luciferase activity) were measured at the end of the experiment. […]

Shh pathway = assay: Gli-luciferase reporter assay for Shh signaling in transiently transfected NIH-3T3 cells; type: cell-based, mouse; conditions: ShhNp-treated NIH-3T3 cells (FIG. 2C: ShhNp 4 nM, cyclopamine 5 μM, 2 d)
[3] = nude mice, once daily intraperitoneal, four days, one mouse per treatment

CC1=C2C[C@H]3[C@@H](CC=C4C[C@@H](O)CC[C@@]43C)[C@@H]2CC[C@]12O[C@@H]1C[C@H](C)CN[C@H]1[C@H]2C [Compound 1, cyclopamine]
differentiation status of tumors [1]: greater degree of differentiation
decrease of tumor size [1, 3]: 0.14%
Ki-67 proliferation rate [1]: 16%
concentration range in which toxic effects emerge (NIH-3T3 cells): 10 to 40 µM
β-galactosidase expression [2]: significantly suppressed
Significant toxicity (microscopically visible cell death, or decrease in Cell Titer reading) (p2PTC−/− cells): not observed
sensitivity of Hedgehog signaling assay to the substance (Hedgehog signaling): resistant

C[C@H]1CC[C@]2(NC1)O[C@H]1C[C@H]3[C@@H]4CC[C@H]5C[C@@H](O)CC[C@]5(C)[C@H]4CC[C@]3(C)[C@H]1[C@@H]2C [tomatidine]
tumor growth over the treatment period [1, 3]: 17%
Ki-67 proliferation rate [1]: 30%

3-keto, N-aminoethyl aminocaproyl dihydrocinnamoyl cyclopamine [KAAD cyclopamine]
differentiation status of tumors [1]: greater degree of differentiation
decrease of tumor size [1, 3]: 19%
Ki-67 proliferation rate [1]: 12%
blocking/suppression of pathway activity in cells lacking Ptc1 function [2]: can block
potency relative to cyclopamine in p2PTC−/− cells ([2]; FIG. 4B, 2 d): higher potency
minimum normalized β-galactosidase activity ([2]; p2PTC−/− cells, 2 d, normalized to cell mass, set to 0): 191
Maximum normalized β-galactosidase activity ([2]; p2PTC−/− cells, 2 d, normalized to cell mass, set to 1): 1103
potency in suppression of ShhNp-induced pathway activity relative to cyclopamine (Sonic hedgehog signaling): 10-20 fold
blocking of pathway activation by tumor-derived / constitutively activated Smo (activated Smo (SmoA1)): can block
concentration suppressing SmoA1-induced reporter activity relative to that required for suppression of ShhNp signaling (activated Smo (SmoA1); higher, FIG. 4A): approximately 10 fold
Significant toxicity (microscopically visible cell death, or decrease in Cell Titer reading) (p2PTC−/− cells): not observed

forskolin
induction of reporter by ShhNp (Shh pathway): prevented induction
